According to the kinase profiling compilation of Christmann-Franck et al. (2016):

Legend:
Assay in all cases: KINOMEscan competition binding
Details in all cases: compound 10.0 µM
CAMKK1 (human) = CAMKK1 (human) (UniProt Q8N5S9)
CLK2 (human) = CLK2 (human) (UniProt P49760)
CLK3 (human) = CLK3 (human) (UniProt P49761)
CLK4 (human) = CLK4 (human) (UniProt Q9HAZ1)
DAPK2 (human) = DAPK2 (human) (UniProt Q9UIK4)
[1] = tested on: EGFR (human), P00533 [747-751 del / S ins]
GAK (human) = GAK (human) (UniProt O14976)
MAP2K3 (human) = MAP2K3 (human) (UniProt P46734)
MKNK1 (human) = MKNK1 (human) (UniProt Q9BUB5)
Sequence of MKNK1 (human) (Q9BUB5 whole entry, looked up): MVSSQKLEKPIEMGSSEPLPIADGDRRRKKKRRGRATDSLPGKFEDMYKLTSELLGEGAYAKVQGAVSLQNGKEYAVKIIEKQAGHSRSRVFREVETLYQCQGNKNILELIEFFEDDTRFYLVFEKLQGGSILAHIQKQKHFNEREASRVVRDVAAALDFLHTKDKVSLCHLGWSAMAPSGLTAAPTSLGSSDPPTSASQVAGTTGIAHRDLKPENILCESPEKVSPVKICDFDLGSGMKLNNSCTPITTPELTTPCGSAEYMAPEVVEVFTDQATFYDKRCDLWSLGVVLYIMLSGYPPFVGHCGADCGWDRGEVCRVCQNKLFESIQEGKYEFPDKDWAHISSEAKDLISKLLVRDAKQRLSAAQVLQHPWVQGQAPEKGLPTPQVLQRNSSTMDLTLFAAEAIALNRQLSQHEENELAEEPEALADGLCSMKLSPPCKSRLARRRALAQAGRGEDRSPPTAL

PIM2 (human) = PIM2 (human) (UniProt Q9P1W9)
RIPK4 (human) = RIPK4 (human) (UniProt P57078)
TAOK1 (human) = TAOK1 (human) (UniProt Q7L7X3)
Sequence of TAOK1 (human) (Q7L7X3 whole entry, looked up): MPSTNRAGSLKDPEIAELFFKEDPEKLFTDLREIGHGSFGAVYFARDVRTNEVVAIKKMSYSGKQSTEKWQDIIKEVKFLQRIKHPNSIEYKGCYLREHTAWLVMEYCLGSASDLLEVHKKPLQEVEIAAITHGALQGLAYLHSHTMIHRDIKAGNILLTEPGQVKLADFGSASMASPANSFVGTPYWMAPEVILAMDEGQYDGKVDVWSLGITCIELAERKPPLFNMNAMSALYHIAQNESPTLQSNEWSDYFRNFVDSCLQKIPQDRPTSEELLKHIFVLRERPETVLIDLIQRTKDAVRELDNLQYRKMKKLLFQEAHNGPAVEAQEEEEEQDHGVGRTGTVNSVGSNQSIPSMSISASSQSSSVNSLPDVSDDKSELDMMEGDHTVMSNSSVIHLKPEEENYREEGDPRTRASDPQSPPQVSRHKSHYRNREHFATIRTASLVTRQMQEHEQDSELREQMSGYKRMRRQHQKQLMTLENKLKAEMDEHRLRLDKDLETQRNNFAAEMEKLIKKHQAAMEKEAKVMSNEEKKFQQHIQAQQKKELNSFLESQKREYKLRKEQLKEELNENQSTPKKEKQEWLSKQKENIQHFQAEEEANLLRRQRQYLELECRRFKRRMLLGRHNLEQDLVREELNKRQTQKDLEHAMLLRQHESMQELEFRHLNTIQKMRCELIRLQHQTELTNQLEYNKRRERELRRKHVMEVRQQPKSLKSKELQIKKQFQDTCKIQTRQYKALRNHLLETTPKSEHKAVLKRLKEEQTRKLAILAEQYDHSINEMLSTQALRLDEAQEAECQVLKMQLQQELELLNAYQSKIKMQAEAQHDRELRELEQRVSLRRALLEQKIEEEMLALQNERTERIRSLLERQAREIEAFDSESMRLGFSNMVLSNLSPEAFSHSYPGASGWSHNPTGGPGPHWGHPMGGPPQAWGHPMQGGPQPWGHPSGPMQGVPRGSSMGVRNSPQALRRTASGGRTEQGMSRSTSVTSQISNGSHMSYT

[2] = target: TYK2 JH2 pseudokinase (human) (UniProt P29597)
ULK2 (human) = ULK2 (human) (UniProt Q8IYT8)
Sequence of ULK2 (human) (Q8IYT8 whole entry, looked up): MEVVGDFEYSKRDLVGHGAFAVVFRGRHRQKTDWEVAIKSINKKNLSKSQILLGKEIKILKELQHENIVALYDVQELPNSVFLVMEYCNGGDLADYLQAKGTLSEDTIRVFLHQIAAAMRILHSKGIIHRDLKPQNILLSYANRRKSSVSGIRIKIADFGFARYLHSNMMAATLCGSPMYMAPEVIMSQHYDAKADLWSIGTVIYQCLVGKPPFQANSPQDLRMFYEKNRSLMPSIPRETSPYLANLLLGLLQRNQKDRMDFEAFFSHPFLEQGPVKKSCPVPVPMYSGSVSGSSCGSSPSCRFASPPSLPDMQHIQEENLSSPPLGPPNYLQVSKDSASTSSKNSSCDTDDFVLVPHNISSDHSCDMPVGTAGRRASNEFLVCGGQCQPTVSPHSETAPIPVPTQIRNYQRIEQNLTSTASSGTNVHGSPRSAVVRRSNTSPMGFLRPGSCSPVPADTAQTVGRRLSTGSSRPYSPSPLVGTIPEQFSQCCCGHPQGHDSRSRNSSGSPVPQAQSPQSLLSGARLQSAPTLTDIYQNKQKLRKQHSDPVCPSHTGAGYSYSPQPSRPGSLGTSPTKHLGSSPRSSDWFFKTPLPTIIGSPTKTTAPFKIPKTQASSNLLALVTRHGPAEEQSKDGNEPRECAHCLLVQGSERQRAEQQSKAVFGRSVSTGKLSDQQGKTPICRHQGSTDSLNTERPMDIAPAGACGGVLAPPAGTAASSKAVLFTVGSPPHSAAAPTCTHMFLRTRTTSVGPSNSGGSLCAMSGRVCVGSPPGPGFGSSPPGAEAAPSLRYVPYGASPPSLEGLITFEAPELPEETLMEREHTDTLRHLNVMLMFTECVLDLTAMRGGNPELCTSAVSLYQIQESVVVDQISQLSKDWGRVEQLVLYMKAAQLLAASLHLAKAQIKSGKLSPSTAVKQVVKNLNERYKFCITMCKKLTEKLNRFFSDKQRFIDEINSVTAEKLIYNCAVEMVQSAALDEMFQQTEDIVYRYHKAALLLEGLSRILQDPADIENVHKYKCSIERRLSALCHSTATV

CSNK1G3 (human) = CSNK1G3 (human) (UniProt Q9Y6M4)
FLT3 (human) = FLT3 (human) (UniProt P36888)
[3] = tested on: FLT3 (human), P36888 [D835H]
[4] = tested on: FLT3 (human), P36888 [D835Y]
[5] = tested on: FLT3 (human), P36888 [ITD]
[6] = target: JAK1 JH2 pseudokinase (human) (UniProt P23458)
[7] = tested on: KIT (human), P10721 [V559D/V654A]
MAP2K4 (human) = MAP2K4 (human) (UniProt P45985)
MAPK8 (human) = MAPK8 (human) (UniProt P45983)
MELK (human) = MELK (human) (UniProt Q14680)
RPS6KA1 KD2 (human) = RPS6KA1 KD2 (human) (UniProt Q15418)
RPS6KA6 KD2 (human) = RPS6KA6 KD2 (human) (UniProt Q9UK32)
SRPK3 (human) = SRPK3 (human) (UniProt Q9UPE1)
STK16 (human) = STK16 (human) (UniProt O75716)
STK24 (human) = STK24 (human) (UniProt Q9Y6E0)
TLK1 (human) = TLK1 (human) (UniProt Q9UKI8)
Sequence of TLK1 (human) (Q9UKI8 whole entry, looked up): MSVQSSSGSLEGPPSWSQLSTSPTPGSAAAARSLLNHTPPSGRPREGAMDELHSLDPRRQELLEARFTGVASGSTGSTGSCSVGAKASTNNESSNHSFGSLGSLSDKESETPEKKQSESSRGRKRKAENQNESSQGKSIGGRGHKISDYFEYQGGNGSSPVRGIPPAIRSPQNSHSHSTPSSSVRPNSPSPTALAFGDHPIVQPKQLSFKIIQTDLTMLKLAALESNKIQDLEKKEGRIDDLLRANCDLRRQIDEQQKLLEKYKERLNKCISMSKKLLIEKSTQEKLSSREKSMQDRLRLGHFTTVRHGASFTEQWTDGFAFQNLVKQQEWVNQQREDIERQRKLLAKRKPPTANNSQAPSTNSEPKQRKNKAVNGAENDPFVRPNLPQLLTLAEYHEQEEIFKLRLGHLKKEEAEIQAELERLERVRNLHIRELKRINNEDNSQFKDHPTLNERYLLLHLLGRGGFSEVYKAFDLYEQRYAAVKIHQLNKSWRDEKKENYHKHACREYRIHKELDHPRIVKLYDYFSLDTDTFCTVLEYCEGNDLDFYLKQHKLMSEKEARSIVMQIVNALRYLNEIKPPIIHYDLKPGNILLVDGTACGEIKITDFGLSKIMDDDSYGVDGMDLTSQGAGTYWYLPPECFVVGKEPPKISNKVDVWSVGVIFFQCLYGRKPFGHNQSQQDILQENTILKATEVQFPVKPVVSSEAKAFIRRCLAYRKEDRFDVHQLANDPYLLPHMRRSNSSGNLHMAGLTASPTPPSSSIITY

TNIK (human) = TNIK (human) (UniProt Q9UKE5)
TNK1 (human) = TNK1 (human) (UniProt Q13470)
Sequence of TNK1 (human) (Q13470 whole entry, looked up): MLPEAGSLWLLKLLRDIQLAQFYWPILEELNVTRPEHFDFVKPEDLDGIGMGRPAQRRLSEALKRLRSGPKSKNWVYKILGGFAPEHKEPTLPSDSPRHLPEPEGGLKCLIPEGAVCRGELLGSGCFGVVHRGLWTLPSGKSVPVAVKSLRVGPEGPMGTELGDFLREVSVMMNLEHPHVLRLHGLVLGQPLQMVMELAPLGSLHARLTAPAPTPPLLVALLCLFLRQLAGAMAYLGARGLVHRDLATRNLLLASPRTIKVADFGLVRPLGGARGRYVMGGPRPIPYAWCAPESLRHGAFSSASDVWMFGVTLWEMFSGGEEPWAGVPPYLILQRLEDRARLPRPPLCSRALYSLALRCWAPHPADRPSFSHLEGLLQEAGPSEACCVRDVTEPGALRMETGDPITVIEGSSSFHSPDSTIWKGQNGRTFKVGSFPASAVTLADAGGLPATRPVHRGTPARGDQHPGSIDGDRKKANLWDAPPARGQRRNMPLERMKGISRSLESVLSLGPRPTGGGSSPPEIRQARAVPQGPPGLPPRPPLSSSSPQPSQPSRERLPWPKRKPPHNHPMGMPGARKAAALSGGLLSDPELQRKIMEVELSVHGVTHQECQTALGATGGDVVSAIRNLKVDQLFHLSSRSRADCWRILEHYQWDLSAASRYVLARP

TTK (human) = TTK (human) (UniProt P33981)
ACVR1 (human) = ACVR1 (human) (UniProt Q04771)
[8] = tested on: EGFR (human), P00533 [G719S]
[9] = tested on: KIT (human), P10721 [V559D/T670I]
[10] = tested on: KIT (human), P10721 [V559D]
PDGFRB (human) = PDGFRB (human) (UniProt P09619)
PRKD3 (human) = PRKD3 (human) (UniProt O94806)
STK11 (human) = STK11 (human) (UniProt Q15831)
STK33 (human) = STK33 (human) (UniProt Q9BYT3)
SRPK2 (human) = SRPK2 (human) (UniProt P78362)

Sequence of CLK3 (human) (P49761 whole entry, looked up): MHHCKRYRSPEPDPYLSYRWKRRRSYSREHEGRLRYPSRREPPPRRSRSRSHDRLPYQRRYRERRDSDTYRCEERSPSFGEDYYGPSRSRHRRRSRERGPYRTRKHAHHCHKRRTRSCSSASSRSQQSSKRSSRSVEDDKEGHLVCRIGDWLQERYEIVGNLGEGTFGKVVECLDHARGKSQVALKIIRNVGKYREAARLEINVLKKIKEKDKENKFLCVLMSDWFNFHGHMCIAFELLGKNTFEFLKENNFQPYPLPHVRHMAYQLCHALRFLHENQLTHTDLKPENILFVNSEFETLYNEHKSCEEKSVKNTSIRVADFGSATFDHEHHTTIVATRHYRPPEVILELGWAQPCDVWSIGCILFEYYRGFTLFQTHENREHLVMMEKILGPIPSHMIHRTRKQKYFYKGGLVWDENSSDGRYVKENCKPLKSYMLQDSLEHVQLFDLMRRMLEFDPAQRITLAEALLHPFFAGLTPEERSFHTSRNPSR
Sequence of DAPK2 (human) (Q9UIK4 whole entry, looked up): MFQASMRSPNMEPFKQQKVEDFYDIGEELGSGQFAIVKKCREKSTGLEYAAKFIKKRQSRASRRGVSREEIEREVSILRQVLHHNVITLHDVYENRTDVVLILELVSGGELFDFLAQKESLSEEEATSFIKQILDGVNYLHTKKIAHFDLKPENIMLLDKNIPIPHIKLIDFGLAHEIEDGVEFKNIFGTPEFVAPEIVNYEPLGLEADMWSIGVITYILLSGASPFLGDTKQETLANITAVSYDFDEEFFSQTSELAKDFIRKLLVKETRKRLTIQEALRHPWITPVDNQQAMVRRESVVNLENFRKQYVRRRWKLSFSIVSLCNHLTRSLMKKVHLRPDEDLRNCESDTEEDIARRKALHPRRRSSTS

kinase still bound, per cent of control (CAMKK1 (human)) [%] | kinase still bound, per cent of control (CLK2 (human)) [%] | kinase still bound, per cent of control (CLK3 (human)) [%] | kinase still bound, per cent of control (CLK4 (human)) [%] | kinase still bound, per cent of control (DAPK2 (human)) [%] | kinase still bound, per cent of control [1] [%] | kinase still bound, per cent of control (GAK (human)) [%] | kinase still bound, per cent of control (MAP2K3 (human)) [%] | kinase still bound, per cent of control (MKNK1 (human)) [%] | kinase still bound, per cent of control (PIM2 (human)) [%] | kinase still bound, per cent of control (RIPK4 (human)) [%] | kinase still bound, per cent of control (TAOK1 (human)) [%] | kinase still bound, per cent of control [2] [%] | kinase still bound, per cent of control (ULK2 (human)) [%] | kinase still bound, per cent of control (CSNK1G3 (human)) [%] | kinase still bound, per cent of control [3] [%] | kinase still bound, per cent of control [4] [%] | kinase still bound, per cent of control (MAP2K4 (human)) [%] | kinase still bound, per cent of control (SRPK3 (human)) [%] | kinase still bound, per cent of control (TNIK (human)) [%] | Compound | also measured
14 | 2.8 | 11 | 2.1 | 4.1 | 16 | 7.6 | 3.2 | 15 | 1.4 | 4.2 | 0 | 31 | 14 | – | – | – | – | – | – | N=C1NC(=O)/C(=C/c2ccc(-c3ccc(F)cc3O)o2)S1 | –
– | 1 | – | 5.2 | 8.6 | – | 15 | – | – | – | 30 | 8.7 | 15 | 17 | 17 | 11 | 2.6 | 31 | 27 | 13 | CN1C(=O)[C@H]2CCC[C@H]2N(C2CCCC2)c2nc(Nc3ccc(C(N)=O)cc3)ncc21 | kinase still bound, per cent of control (FLT3 (human)): 19%; kinase still bound, per cent of control [5]: 20%; kinase still bound, per cent of control [6]: 9.2%; kinase still bound, per cent of control [7]: 4.1%; kinase still bound, per cent of control (MAPK8 (human)): 29%; kinase still bound, per cent of control (MELK (human)): 27%; kinase still bound, per cent of control (RPS6KA1 KD2 (human)): 7.6%; kinase still bound, per cent of control (RPS6KA6 KD2 (human)): 13%; kinase still bound, per cent of control (STK16 (human)): 4.8%; kinase still bound, per cent of control (STK24 (human)): 16%; kinase still bound, per cent of control (TLK1 (human)): 8.6%; kinase still bound, per cent of control (TNK1 (human)): 2%; kinase still bound, per cent of control (TTK (human)): 14%
– | – | – | – | 14 | 24 | – | 16 | 0.55 | – | 5.8 | 1.4 | – | 29 | 1 | 8.7 | 3.8 | – | 34 | 19 | CS(=O)(=O)Nc1ccc(-c2cncc(/C=C3\SC(=N)NC3=O)c2)cc1 | kinase still bound, per cent of control (ACVR1 (human)): 1.8%; kinase still bound, per cent of control [8]: 24%; kinase still bound, per cent of control [5]: 25%; kinase still bound, per cent of control [9]: 31%; kinase still bound, per cent of control [10]: 6%; kinase still bound, per cent of control (PDGFRB (human)): 7.2%; kinase still bound, per cent of control (PRKD3 (human)): 24%; kinase still bound, per cent of control (STK11 (human)): 17%; kinase still bound, per cent of control (STK33 (human)): 18%; kinase still bound, per cent of control (TLK1 (human)): 26%; kinase still bound, per cent of control (TNK1 (human)): 28%
– | 2.8 | 29 | 16 | 2.3 | – | 30 | – | – | 1.8 | – | 32 | – | 4.8 | – | – | 23 | – | 23 | 18 | N=C1NC(=O)/C(=C/c2c[nH]c(=O)c(-c3ccc(N4CCNCC4)nc3)c2)S1 | kinase still bound, per cent of control (ACVR1 (human)): 29%; kinase still bound, per cent of control (MELK (human)): 27%; kinase still bound, per cent of control (STK33 (human)): 7.2%
13 | 0.9 | 12 | 5.2 | 3.2 | 31 | 7.6 | 3.4 | – | 1.4 | 5.2 | 0 | – | 12 | – | – | – | 16 | – | – | N=C1NC(=O)/C(=C/c2ccc(-c3ccccc3O)o2)S1 | kinase still bound, per cent of control (PRKD3 (human)): 28%
– | – | – | – | 3.2 | – | 2.8 | – | 13 | 4.3 | – | – | – | 24 | 8.3 | 23 | 12 | – | – | 16 | CS(=O)(=O)Nc1ccc(-c2ncc(/C=C3\SC(=N)NC3=O)s2)cc1 | kinase still bound, per cent of control [9]: 32%; kinase still bound, per cent of control (PDGFRB (human)): 10%; kinase still bound, per cent of control (TTK (human)): 19%
16 | 19 | 4.2 | 6.4 | 24 | – | 6.6 | – | 13 | 0.8 | 7.9 | 2.2 | 0.25 | – | – | – | – | – | – | – | N=C1NC(=O)/C(=C/c2ccc(-c3ccc(C(N)=O)cc3O)o2)S1 | kinase still bound, per cent of control (TTK (human)): 34%
– | 15 | – | 25 | 14 | – | – | 20 | – | 0.3 | – | 18 | 8.5 | – | – | – | 19 | – | – | – | N=C1NC(=O)/C(=C/c2ccc(-c3csc4ccccc34)o2)S1 | kinase still bound, per cent of control [6]: 19%; kinase still bound, per cent of control [7]: 24%; kinase still bound, per cent of control (MAPK8 (human)): 34%; kinase still bound, per cent of control (RPS6KA1 KD2 (human)): 14%; kinase still bound, per cent of control (RPS6KA6 KD2 (human)): 18%; kinase still bound, per cent of control (STK24 (human)): 18%; kinase still bound, per cent of control (TLK1 (human)): 11%; kinase still bound, per cent of control (TNK1 (human)): 31%
25 | 9.5 | 14 | – | 3.6 | – | 3.4 | 29 | – | 1.7 | 8.4 | – | – | 13 | – | – | – | 10 | 14 | – | CSC1=NC(=O)/C(=C/c2c[nH]c(=O)c(-c3ccc(NS(C)(=O)=O)cc3)c2)S1 | kinase still bound, per cent of control (RPS6KA1 KD2 (human)): 32%; kinase still bound, per cent of control (SRPK2 (human)): 13%; kinase still bound, per cent of control (STK11 (human)): 15%; kinase still bound, per cent of control (STK16 (human)): 21%
